Assay results as given in US20120101032A1, “NOVEL MACROCYCLIC INHIBITORS OF HEPATITIS C VIRUS REPLICATION” (priority 2010, published 2012).
Like-named read-outs stand apart in the source and are kept apart here.

Tests used:
[1] = molecular target: NS3/NS4 complexes (Hepatitis C virus genotype 1a, UniProt P27958); assay: biochemical
Text: NS3-NS4 inhibition activity can be determined using known assay methods. For example, NS3/NS4 complexes may be formed and inhibitory concentrations of test compounds determined as described in U.S. Patent Application Publication Number 2007/0054842 paragraph numbers 1497-1509, which is incorporated herein by reference in its entirety. Similarly, hepatitis C replicon EC50 may be determined using known assay methods such as described in U.S. Patent Application Publication Number 2007/0054842 paragraph numbers 1510-1515, which is incorporated herein by reference in its entirety. Assays may be conducted at ambient temperature (23° C.) in assay buffer containing 50 mM Tris-HCl, pH 7.5, 15% glycerol, 0.6 mM Lauryldimethylamine Oxide (LDAO), 25 μM NS4A peptide, and 10 mM Dithiothreitol (DTT).

[2] = test system: hepatitis C replicon; assay: hepatitis C replicon EC50 assay; format: cell-based; details: Hepatitis C virus
Text: NS3-NS4 inhibition activity can be determined using known assay methods.

[3] = NS3-NS4 activity, 23° C., pH 7.5, 25 μM NS4A peptide, read-out: IC50
[4] = hepatitis C replicon, read-out: EC50

Sequence of NS3/NS4 complexes (P27958 1027-1657, one chain of several): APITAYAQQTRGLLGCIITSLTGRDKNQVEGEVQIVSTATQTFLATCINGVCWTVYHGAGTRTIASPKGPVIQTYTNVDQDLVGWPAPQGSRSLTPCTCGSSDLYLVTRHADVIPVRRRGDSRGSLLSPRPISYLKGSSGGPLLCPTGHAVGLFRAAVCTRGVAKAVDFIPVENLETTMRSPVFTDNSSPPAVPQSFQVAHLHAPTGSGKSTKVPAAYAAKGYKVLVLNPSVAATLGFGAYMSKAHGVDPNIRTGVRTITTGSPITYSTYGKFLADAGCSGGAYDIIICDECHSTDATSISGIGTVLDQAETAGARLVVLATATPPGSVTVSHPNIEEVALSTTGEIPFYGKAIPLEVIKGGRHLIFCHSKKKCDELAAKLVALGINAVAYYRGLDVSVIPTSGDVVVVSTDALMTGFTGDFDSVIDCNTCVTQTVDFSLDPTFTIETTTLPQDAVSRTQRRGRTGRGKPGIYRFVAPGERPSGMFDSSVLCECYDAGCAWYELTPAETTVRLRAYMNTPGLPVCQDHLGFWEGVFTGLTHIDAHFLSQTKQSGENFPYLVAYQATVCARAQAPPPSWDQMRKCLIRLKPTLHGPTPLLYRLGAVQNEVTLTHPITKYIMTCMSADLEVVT

Row | SMILES | IC50 [1, 3] [nM] | EC50 [2, 4] [nM] | EC50 [2] [nM] | IC50 [1] [nM]
1 | CC(C)n1c(O[C@@H]2C[C@H]3C(=O)N[C@]4(C(=O)NS(=O)(=O)N(C)C)C[C@H]4/C=C\CCCCC[C@H](NC(=O)OC(C)(C)C)C(=O)N3C2)nc2c(-c3nc(Cc4cccc(OC(F)(F)F)c4)cs3)cccc21 [Compound 150] | < 10 | 10 to 100 | – | –
2 | CC(C)n1c(O[C@@H]2C[C@H]3C(=O)N[C@]4(C(=O)NS(=O)(=O)N(C)C)C[C@H]4/C=C\CCCCC[C@H](NC(=O)OC(C)(C)C)C(=O)N3C2)nc2c(-c3nc(Cc4ccc(Cl)cc4)cs3)cccc21 [Compound 151] | < 10 | < 10 | – | –
3 | COc1cccc(Cc2csc(-c3cccc4c3nc(O[C@@H]3C[C@H]5C(=O)N[C@]6(C(=O)NS(=O)(=O)N(C)C)C[C@H]6/C=C\CCCCC[C@H](NC(=O)OC(C)(C)C)C(=O)N5C3)n4C(C)C)n2)c1 [Compound 152] | < 10 | < 10 | – | –
4 | CC(C)n1c(O[C@@H]2C[C@H]3C(=O)N[C@]4(C(=O)NS(=O)(=O)N(C)C)C[C@H]4/C=C\CCCCC[C@H](NC(=O)OC(C)(C)C)C(=O)N3C2)nc2c(-c3nc(Cc4cccc(Br)c4)cs3)cccc21 [Compound 153] | < 10 | 10 to 100 | – | –
5 | CC(C)n1c(O[C@@H]2C[C@H]3C(=O)N[C@]4(C(=O)NS(=O)(=O)N(C)C)C[C@H]4/C=C\CCCCC[C@H](NC(=O)OC(C)(C)C)C(=O)N3C2)nc2c(-c3nc(Cc4ccc(-c5ccccc5)cc4)cs3)cccc21 [Compound 154] | < 10 | 10 to 100 | – | –
6 | CC(C)n1c(O[C@@H]2C[C@H]3C(=O)N[C@]4(C(=O)NS(=O)(=O)N(C)C)C[C@H]4/C=C\CCCCC[C@H](NC(=O)OC(C)(C)C)C(=O)N3C2)nc2c(-c3nc(Cc4ccc(OC(F)(F)F)cc4)cs3)cccc21 [Compound 155] | < 10 | 10 to 100 | – | –
7 | CC(C)n1c(O[C@@H]2C[C@H]3C(=O)N[C@]4(C(=O)NS(=O)(=O)N(C)C)C[C@H]4/C=C\CCCCC[C@H](NC(=O)OC(C)(C)C)C(=O)N3C2)nc2c(-c3nc(Cc4ccccc4F)cs3)cccc21 [Compound 156] | < 10 | < 10 | – | –
8 | COc1ccc(Cc2csc(-c3cccc4c3nc(O[C@@H]3C[C@H]5C(=O)N[C@]6(C(=O)NS(=O)(=O)N(C)C)C[C@H]6/C=C\CCCCC[C@H](NC(=O)OC(C)(C)C)C(=O)N5C3)n4C(C)C)n2)cc1 [Compound 157] | < 10 | < 10 | – | –
9 | CC(C)n1c(O[C@@H]2C[C@H]3C(=O)N[C@]4(C(=O)NS(=O)(=O)N(C)C)C[C@H]4/C=C\CCCCC[C@H](NC(=O)OC(C)(C)C)C(=O)N3C2)nc2c(-c3csc(N4CCCC4)n3)cccc21 [Compound 158] | < 10 | < 10 | – | –
10 | CC(C)n1c(O[C@@H]2C[C@H]3C(=O)N[C@]4(C(=O)NS(=O)(=O)N(C)C)C[C@H]4/C=C\CCCCC[C@H](NC(=O)OC(C)(C)C)C(=O)N3C2)nc2c(-c3cnccn3)cccc21 [Compound 159] | < 10 | < 10 | – | –
11 | CC(C)n1c(O[C@@H]2C[C@H]3C(=O)N[C@]4(C(=O)NS(=O)(=O)N(C)C)C[C@H]4/C=C\CCCCC[C@H](NC(=O)OC(C)(C)C)C(=O)N3C2)nc2c(-c3csc(N4CCN(C)CC4)n3)cccc21 [Compound 160] | < 10 | < 10 | – | –
12 | CC(C)n1c(O[C@@H]2C[C@H]3C(=O)N[C@]4(C(=O)NS(=O)(=O)N(C)C)C[C@H]4/C=C\CCCCC[C@H](NC(=O)OC(C)(C)C)C(=O)N3C2)nc2c(-c3cncnc3)cccc21 [Compound 161] | < 10 | < 10 | – | –
13 | CC(C)n1c(O[C@@H]2C[C@H]3C(=O)N[C@]4(C(=O)NS(=O)(=O)N(C)C)C[C@H]4/C=C\CCCCC[C@H](NC(=O)OC(C)(C)C)C(=O)N3C2)nc2c(-c3cncc(N4CCCC4)n3)cccc21 [Compound 162] | < 10 | < 10 | – | –
14 | CC(C)n1c(O[C@@H]2C[C@H]3C(=O)N[C@]4(C(=O)NS(=O)(=O)N(C)C)C[C@H]4/C=C\CCCCC[C@H](NC(=O)OC(C)(C)C)C(=O)N3C2)nc2c(-c3cscn3)cccc21 [Compound 163] | < 10 | < 10 | – | –
15 | CC(C)n1c(O[C@@H]2C[C@H]3C(=O)N[C@]4(C(=O)NS(=O)(=O)N(C)C)C[C@H]4/C=C\CCCCC[C@H](NC(=O)OC(C)(C)C)C(=O)N3C2)nc2c(-c3csc(-c4ccc(F)c(F)c4)n3)cccc21 [Compound 164] | 10 to 100 | > 100 | – | –
16 | CC(C)n1c(O[C@@H]2C[C@H]3C(=O)N[C@]4(C(=O)NS(=O)(=O)C5(C)CC5)C[C@H]4/C=C\CCCCC[C@H](NC(=O)OC4CCCC4)C(=O)N3C2)nc2c(-c3nc(Cc4ccccc4)cs3)cccc21 [Compound 165] | < 10 | < 10 | – | –
17 | CC(C)n1c(O[C@@H]2C[C@H]3C(=O)N[C@]4(C(=O)NS(=O)(=O)C5(C)CC5)C[C@H]4/C=C\CCCCC[C@H](NC(=O)O[C@@H]4C[C@@H]5C[C@@H]5C4)C(=O)N3C2)nc2c(-c3nc(Cc4ccccc4)cs3)cccc21 [Compound 166] | < 10 | < 10 | – | –

Row | SMILES | IC50 [1, 3] [nM] | EC50 [2, 4] [nM] | EC50 [2] [nM] | IC50 [1] [nM]
18 | Cc1ccc2c(nc(O[C@@H]3C[C@H]4C(=O)N[C@]5(C(=O)NS(=O)(=O)N(C)C)C[C@H]5/C=C\CCCCC[C@H](NC(=O)OC(C)(C)C)C(=O)N4C3)n2C(C)C)c1-c1nc(C(C)C)cs1 [Compound 167] | < 10 | 10 to 100 | – | –
19 | Cc1ccc2c(nc(O[C@@H]3C[C@H]4C(=O)N[C@]5(C(=O)NS(=O)(=O)N(C)C)C[C@H]5/C=C\CCCCC[C@H](NC(=O)OC(C)(C)C)C(=O)N4C3)n2C(C)C)c1-c1nc(C2CCCC2)cs1 [Compound 168] | < 10 | 10 to 100 | – | –
20 | CC(C)n1c(O[C@@H]2C[C@H]3C(=O)N[C@]4(C(=O)NS(=O)(=O)N(C)C)C[C@H]4/C=C\CCCCC[C@H](N)C(=O)N3C2)nc2c(-c3csc(N4CCCCC4)n3)cccc21 [Compound 169] | < 10 | > 100 | – | –
21 | CC(C)n1c(O[C@@H]2C[C@H]3C(=O)N[C@]4(C(=O)NS(=O)(=O)C5(C)CC5)C[C@H]4/C=C\CCCCC[C@H](N)C(=O)N3C2)nc2c(-c3csc(N4CCCCC4)n3)cccc21 [Compound 170] | < 10 | – | 10 to 100 | –
22 | CC(C)n1c(O[C@@H]2C[C@H]3C(=O)N[C@]4(C(=O)NS(=O)(=O)C5CC5)C[C@H]4/C=C\CCCCC[C@H](NC(=O)OC(C)(C)C)C(=O)N3C2)nc2c(-c3nc(C4CCCCC4)cs3)cccc21 [Compound 172] | < 10 | < 10 | – | –
23 | CC(C)n1c(O[C@@H]2C[C@H]3C(=O)N[C@]4(C(=O)NS(=O)(=O)C5CC5)C[C@H]4/C=C\CCCCC[C@H](N)C(=O)N3C2)nc2c(-c3nc(C4CCCCC4)cs3)cccc21 [Compound 173] | < 10 | > 100 | – | –
24 | CC(C)n1c(O[C@@H]2C[C@H]3C(=O)N[C@]4(C(=O)NS(=O)(=O)C5(C)CC5)C[C@H]4/C=C\CCCCC[C@H](NC(=O)OC(C)(C)C)C(=O)N3C2)nc2c(-c3nc(C(F)(F)F)cs3)cccc21 [Compound 174] | < 10 | < 10 | – | –
25 | CC(C)n1c(O[C@@H]2C[C@H]3C(=O)N[C@]4(C(=O)NS(=O)(=O)C5(C)CC5)C[C@H]4/C=C\CCCCC[C@H](N)C(=O)N3C2)nc2c(-c3nc(C(F)(F)F)cs3)cccc21 [Compound 175] | < 10 | 10 to 100 | – | –
26 | CC(C)n1c(O[C@@H]2C[C@H]3C(=O)N[C@]4(C(=O)NS(=O)(=O)C5(C)CC5)C[C@H]4/C=C\CCCCC[C@H](NC(=O)OC(C)(C)C)C(=O)N3C2)nc2c(-c3csc(C(F)(F)F)n3)cccc21 [Compound 176] | < 10 | < 10 | – | –
27 | COc1ccccc1-c1csc(-c2cccc3c2nc(O[C@@H]2C[C@H]4C(=O)N[C@]5(C(=O)NS(=O)(=O)C6(C)CC6)C[C@H]5/C=C\CCCCC[C@H](N)C(=O)N4C2)n3C(C)C)n1 [Compound 177] | < 10 | > 100 | – | –
28 | CC(C)n1c(O[C@@H]2C[C@H]3C(=O)N[C@]4(C(=O)NS(=O)(=O)C5(C)CC5)C[C@H]4/C=C\CCCCC[C@H](N)C(=O)N3C2)nc2c(-c3nc(C4CCCCC4)cs3)cccc21 [Compound 178] | < 10 | > 100 | – | –
29 | CC(C)n1c(O[C@@H]2C[C@H]3C(=O)N[C@]4(C(=O)NS(=O)(=O)C5(C)CC5)C[C@H]4/C=C\CCCCC[C@H](NC(=O)OC(C)(C)C)C(=O)N3C2)nc2c(-c3nc(C4CCCCC4)cs3)cccc21 [Compound 179] | < 10 | – | < 10 | –
30 | CC(C)n1c(O[C@@H]2C[C@H]3C(=O)N[C@]4(C(=O)NS(=O)(=O)C5(C)CC5)C[C@H]4/C=C\CCCCC[C@H](NC(=O)OC(C)(C)C)C(=O)N3C2)nc2c(-c3nc(C4CCOCC4)cs3)cccc21 [Compound 181] | < 10 | < 10 | – | –
31 | CC(C)n1c(O[C@@H]2C[C@H]3C(=O)N[C@]4(C(=O)NS(=O)(=O)C5(C)CC5)C[C@H]4/C=C\CCCCC[C@H](NC(=O)OC(C)(C)C)C(=O)N3C2)nc2c(-c3nc(C4CCNCC4)cs3)cccc21 [Compound 182] | – | – | 10 to 100 | < 10
32 | CC(C)n1c(O[C@@H]2C[C@H]3C(=O)N[C@]4(C(=O)NS(=O)(=O)C5(C)CC5)C[C@H]4/C=C\CCCCC[C@H](NC(=O)OC(C)(C)C)C(=O)N3C2)nc2c(-c3nc(C4CCN(C)CC4)cs3)cccc21 [Compound 183] | < 10 | < 10 | – | –
33 | CC(C)n1c(O[C@@H]2C[C@H]3C(=O)N[C@]4(C(=O)NS(=O)(=O)C5CC5)C[C@H]4/C=C\CCCCC[C@H](NC(=O)OC(C)(C)C)C(=O)N3C2)nc2c(-c3nc(C4CCN(C)CC4)cs3)cccc21 [Compound 184] | < 10 | < 10 | – | –
34 | C#CC1(S(=O)(=O)NC(=O)[C@@]23C[C@H]2/C=C\CCCCC[C@H](NC(=O)OC(C)(C)C)C(=O)N2C[C@H](Oc4nc5c(-c6nc(C7CCCCC7)cs6)cccc5n4C(C)C)C[C@H]2C(=O)N3)CC1 [Compound 188] | – | – | < 10 | < 10
